Experimental data reported in patent US11753399B2, “Therapeutic compounds” (Gilead Sciences, Inc., priority 2018, dated 2023).
Read-outs that look alike come from different tables or passages of the source.

Experiments:
HIV-IIIb = test: Test A: Antiviral Assay in MT4 Cells; assay type: cell-based, HIV-1; details: for inhibition at 0.01 µM: read-out: % inhibition at 0.01 μM; for inhibition at 0.2 µM: read-out: % inhibition at 0.20 μM
Description: (§1) MT-4 cells were next mixed with HIV-IIIb at a multiplicity of infection (m.o.i.) of 0.003 for 1 hour, after which time 35 μL of virus/cell mixture (2000 cells) was immediately added to each well containing 40 μL of diluted compound. The plates were then incubated at 37° C. for 5 days. After 5 days of incubation, 25 μl of 2× concentrated CellTiter-Glo Reagent (catalog #G7571, Promega Biosciences, Inc., Madison, Wis.) was added to each well containing MT-4 cells. Cell lysis was carried out by incubating at room temperature for 10 min and then chemiluminescence was read.

[1] = Test B: Cytotoxicity Assay (same protocol as Test A, uninfected cells); assay type: cell-based; details: human, uninfected MT-4 cells, CellTiter-Glo
Description: as §1, with “read. […] Compound cytotoxicity and the corresponding CC50 values was determined using the same protocol as described in the antiviral assay (Test A) except that uninfected cells were used.” for “read.”

[2] = Human immunodeficiency virus 1, MT4, 120 h, inhibition of virus-induced cell killing, from dose response curve at 0.01 μM (10 nM), MT-4 cells, HIV-IIIb, 5 days, values normalized to 100%
[3] = Human immunodeficiency virus 1, MT4, 120 h, inhibition of virus-induced cell killing, from dose response curve at 0.20 μM (200 nM), MT-4 cells, HIV-IIIb, 5 days, values normalized to 100%
[4] = Human immunodeficiency virus 1, IIIB, MT4, 120 h

Compound: CC1(S(=O)(=O)Nc2nn(CC(F)F)c3c(-c4ccc(C#CC(C)(C)S(=O)(=O)C5CC5)nc4[C@H](Cc4cc(F)cc(F)c4)NC(=O)Cn4nc(C(F)F)c5c4C(F)(F)[C@@H]4C[C@H]54)ccc(Cl)c23)CC1 [Example 2F, N—((S)-1-(3-(4-chloro-1-(2,2-difluoroethyl)-3-((1-methylcyclopropane)-1-sulfonamido)-1H-indazol-7-yl)-6-(3-(cyclopropylsulfonyl)-3-methylbut-1-yn-1-yl)pyridin-2-yl)-2-(3,5-difluorophenyl)ethyl)-2-((3bS,4aR)-3-(difluoromethyl)-5,5-difluoro-3b,4,4a,5-tetrahydro-1H-cyclopropa[3,4]cyclopenta[1,2-c]pyrazol-1-yl)acetamide]
- inhibition at 0.01 µM (HIV-IIIb; [2]): 100%
- inhibition at 0.2 µM (HIV-IIIb; [3]): 100%
- CC50 at 5 days [1]: > 57.1 µM

Compound: Cn1nc(Nc2nnc(C(C)(C)O)o2)c2c(Cl)ccc(-c3ccc(C#CC(C)(C)S(=O)(=O)C4CC4)nc3[C@H](Cc3cc(F)cc(F)c3)NC(=O)Cn3nc(C(F)(F)F)c4c3C(F)(F)[C@@H]3C[C@H]43)c21 [Example 3F, N—((S)-1-(3-(4-chloro-3-((5-(2-hydroxypropan-2-yl)-1,3,4-oxadiazol-2-yl)amino)-1-methyl-1H-indazol-7-yl)-6-(3-(cyclopropylsulfonyl)-3-methylbut-1-yn-1-yl)pyridin-2-yl)-2-(3,5-difluorophenyl)ethyl)-2-((3bS,4aR)-5,5-difluoro-3-(trifluoromethyl)-3b,4,4a,5-tetrahydro-1H-cyclopropa[3,4]cyclopenta[1,2-c]pyrazol-1-yl)acetamide]
- inhibition at 0.01 µM (HIV-IIIb; [2]): 100%
- inhibition at 0.2 µM (HIV-IIIb; [3]): 100%
- CC50 at 5 days [1]: 21.8 µM

Compound: Cn1nc(NS(C)(=O)=O)c2c(Cl)ccc(-c3ccc(C#CC(C)(C)S(=O)(=O)C4CC4)nc3[C@H](Cc3cc(F)cc(F)c3)NC(=O)Cn3nc(C(F)F)c4c3C(F)(F)[C@@H]3C[C@H]43)c21 [Example 4]
- inhibition at 0.01 µM (HIV-IIIb; [4]): 92%
- inhibition at 0.2 µM (HIV-IIIb; [4]): 92%

Compound: CCS(=O)(=O)Nc1nn(C)c2c(-c3ccc(C#CC(C)(C)S(=O)(=O)C4CC4)nc3[C@H](Cc3cc(F)cc(F)c3)NC(=O)Cn3nc(C(F)F)c4c3C(F)(F)[C@@H]3C[C@H]43)ccc(Cl)c12 [Example 6]
- inhibition at 0.01 µM (HIV-IIIb; [2]): 100%
- inhibition at 0.2 µM (HIV-IIIb; [3]): 100%
- CC50 at 5 days [1]: > 57.1 µM

Compound: CCS(=O)(=O)Nc1nn(C)c2c(-c3ccc(C#CC(C)(C)S(=O)(=O)C4CC4)nc3[C@H](Cc3cc(F)cc(F)c3)NC(=O)Cn3nc(C(F)(F)F)c4c3C(F)(F)[C@@H]3C[C@H]43)ccc(Cl)c12 [Example 7]
- inhibition at 0.01 µM (HIV-IIIb; [2]): 94%
- inhibition at 0.2 µM (HIV-IIIb; [3]): 94%
- CC50 at 5 days [1]: > 57.1 µM

Compound: CC(C)(C#Cc1ccc(-c2ccc(Cl)c3c(NS(C)(=O)=O)nn(CC(F)F)c23)c([C@H](Cc2cc(F)cc(F)c2)NC(=O)Cn2nc(C(F)F)c3c2C(F)(F)[C@@H]2C[C@H]32)n1)S(=O)(=O)C1CC1 [Example 8]
- inhibition at 0.01 µM (HIV-IIIb; [2]): 94%
- inhibition at 0.2 µM (HIV-IIIb; [3]): 94%
- CC50 at 5 days [1]: > 57.1 µM

Compound: CCS(=O)(=O)Nc1nn(CC(F)F)c2c(-c3ccc(C#CC(C)(C)S(=O)(=O)C4CC4)nc3[C@H](Cc3cc(F)cc(F)c3)NC(=O)Cn3nc(C(F)F)c4c3C(F)(F)[C@@H]3C[C@H]43)ccc(Cl)c12 [Example 9]
- inhibition at 0.01 µM (HIV-IIIb; [2]): 96%
- inhibition at 0.2 µM (HIV-IIIb; [3]): 96%
- CC50 at 5 days [1]: > 57.1 µM

Compound: Cn1nc(Nc2nnc(C(C)(C)O)o2)c2c(Cl)ccc(-c3ccc(C#CC(C)(C)S(=O)(=O)C4CC4)nc3[C@H](Cc3cc(F)cc(F)c3)NC(=O)Cn3nc(C(F)F)c4c3C(F)(F)[C@@H]3C[C@H]43)c21 [Example 10]
- inhibition at 0.01 µM (HIV-IIIb; [2]): 100%
- inhibition at 0.2 µM (HIV-IIIb; [3]): 100%
- CC50 at 5 days [1]: 18.5 µM

Compound: CCS(=O)(=O)Nc1nn(CC(F)F)c2c(-c3ccc(C#CC(C)(C)S(=O)(=O)C4CC4)nc3[C@H](Cc3cc(F)cc(F)c3)NC(=O)Cn3nc(C(F)(F)F)c4c3C(F)(F)[C@@H]3C[C@H]43)ccc(Cl)c12 [Example 11]
- inhibition at 0.01 µM (HIV-IIIb; [2]): 92%
- inhibition at 0.2 µM (HIV-IIIb; [3]): 92%
- CC50 at 5 days [1]: > 57.1 µM

Compound: Cn1nc(NS(=O)(=O)C2CC2)c2c(Cl)ccc(-c3ccc(C#CC(C)(C)S(=O)(=O)C4CC4)nc3[C@H](Cc3cc(F)cc(F)c3)NC(=O)Cn3nc(C(F)F)c4c3C(F)(F)[C@@H]3C[C@H]43)c21 [Example 12]
- inhibition at 0.01 µM (HIV-IIIb; [2]): 94%
- inhibition at 0.2 µM (HIV-IIIb; [3]): 94%
- CC50 at 5 days [1]: > 57.1 µM

Compound: Cn1nc(NS(=O)(=O)C2CC2)c2c(Cl)ccc(-c3ccc(C#CC(C)(C)S(=O)(=O)C4CC4)nc3[C@H](Cc3cc(F)cc(F)c3)NC(=O)Cn3nc(C(F)(F)F)c4c3C(F)(F)[C@@H]3C[C@H]43)c21 [Example 13]
- inhibition at 0.01 µM (HIV-IIIb; [2]): 100%
- inhibition at 0.2 µM (HIV-IIIb; [3]): 100%
- CC50 at 5 days [1]: > 57.1 µM

Compound: Cn1nc(NS(=O)(=O)CC2CC2)c2c(Cl)ccc(-c3ccc(C#CC(C)(C)S(=O)(=O)C4CC4)nc3[C@H](Cc3cc(F)cc(F)c3)NC(=O)Cn3nc(C(F)F)c4c3C(F)(F)[C@@H]3C[C@H]43)c21 [Example 14]
- inhibition at 0.01 µM (HIV-IIIb; [2]): 100%
- inhibition at 0.2 µM (HIV-IIIb; [3]): 100%
- CC50 at 5 days [1]: > 57.1 µM

Compound: Cn1nc(NS(=O)(=O)CC2CC2)c2c(Cl)ccc(-c3ccc(C#CC(C)(C)S(=O)(=O)C4CC4)nc3[C@H](Cc3cc(F)cc(F)c3)NC(=O)Cn3nc(C(F)(F)F)c4c3C(F)(F)[C@@H]3C[C@H]43)c21 [Example 15]
- inhibition at 0.01 µM (HIV-IIIb; [2]): 98%
- inhibition at 0.2 µM (HIV-IIIb; [3]): 98%
- CC50 at 5 days [1]: > 57.1 µM

Compound: CC(C)(C#Cc1ccc(-c2ccc(Cl)c3c(NS(=O)(=O)C4CC4)nn(CC(F)F)c23)c([C@H](Cc2cc(F)cc(F)c2)NC(=O)Cn2nc(C(F)F)c3c2C(F)(F)[C@@H]2C[C@H]32)n1)S(=O)(=O)C1CC1 [Example 16]
- inhibition at 0.01 µM (HIV-IIIb; [2]): 98%
- inhibition at 0.2 µM (HIV-IIIb; [3]): 98%
- CC50 at 5 days [1]: > 57.1 µM

Compound: CC(C)(C#Cc1ccc(-c2ccc(Cl)c3c(NS(C)(=O)=O)nn(CC(F)(F)F)c23)c([C@H](Cc2cc(F)cc(F)c2)NC(=O)Cn2nc(C(F)F)c3c2C(F)(F)[C@@H]2C[C@H]32)n1)S(=O)(=O)C1CC1 [Example 17]
- inhibition at 0.01 µM (HIV-IIIb; [2]): 98%
- inhibition at 0.2 µM (HIV-IIIb; [3]): 98%
- CC50 at 5 days [1]: > 24 µM

Compound: CC(C)(C#Cc1ccc(-c2ccc(Cl)c3c(NS(C)(=O)=O)nn(C4COC4)c23)c([C@H](Cc2cc(F)cc(F)c2)NC(=O)Cn2nc(C(F)F)c3c2C(F)(F)[C@@H]2C[C@H]32)n1)S(=O)(=O)C1CC1 [Example 18]
- inhibition at 0.01 µM (HIV-IIIb; [2]): 100%
- inhibition at 0.2 µM (HIV-IIIb; [3]): 100%
- CC50 at 5 days [1]: 41.6 µM

Compound: CC(C)(C#Cc1ccc(-c2ccc(Cl)c3c(NS(C)(=O)=O)nn(C4COC4)c23)c([C@H](Cc2cc(F)cc(F)c2)NC(=O)Cn2nc(C(F)(F)F)c3c2C(F)(F)[C@@H]2C[C@H]32)n1)S(=O)(=O)C1CC1 [Example 19]
- inhibition at 0.01 µM (HIV-IIIb; [2]): 97%
- inhibition at 0.2 µM (HIV-IIIb; [3]): 97%
- CC50 at 5 days [1]: > 57.1 µM

Compound: Cn1nc(NS(=O)(=O)C2(C)CC2)c2c(Cl)ccc(-c3ccc(C#CC(C)(C)S(=O)(=O)C4CC4)nc3[C@H](Cc3cc(F)cc(F)c3)NC(=O)Cn3nc(C(F)F)c4c3C(F)(F)[C@@H]3C[C@H]43)c21 [Example 20]
- inhibition at 0.01 µM (HIV-IIIb; [2]): 89%
- inhibition at 0.2 µM (HIV-IIIb; [3]): 89%
- CC50 at 5 days [1]: > 57.1 µM

Compound: Cn1nc(NS(=O)(=O)C2(C)CC2)c2c(Cl)ccc(-c3ccc(C#CC(C)(C)S(=O)(=O)C4CC4)nc3[C@H](Cc3cc(F)cc(F)c3)NC(=O)Cn3nc(C(F)(F)F)c4c3C(F)(F)[C@@H]3C[C@H]43)c21 [Example 21]
- inhibition at 0.01 µM (HIV-IIIb; [2]): 100%
- inhibition at 0.2 µM (HIV-IIIb; [3]): 100%
- CC50 at 5 days [1]: > 57.1 µM

Compound: CC1(S(=O)(=O)Nc2nn(CC(F)F)c3c(-c4ccc(C#CC(C)(C)S(=O)(=O)C5CC5)nc4[C@H](Cc4cc(F)cc(F)c4)NC(=O)Cn4nc(C(F)(F)F)c5c4C(F)(F)[C@@H]4C[C@H]54)ccc(Cl)c23)CC1 [Example 22]
- inhibition at 0.01 µM (HIV-IIIb; [2]): 94%
- inhibition at 0.2 µM (HIV-IIIb; [3]): 94%
- CC50 at 5 days [1]: > 57.1 µM

Compound: CC(C)(C#Cc1ccc(-c2ccc(Cl)c3c(NS(=O)(=O)C4CC4)nn(CC(F)F)c23)c([C@H](Cc2cc(F)cc(F)c2)NC(=O)Cn2nc(C(F)(F)F)c3c2C(F)(F)[C@@H]2C[C@H]32)n1)S(=O)(=O)C1CC1 [Example 23]
- inhibition at 0.01 µM (HIV-IIIb; [2]): 100%
- inhibition at 0.2 µM (HIV-IIIb; [3]): 100%
- CC50 at 5 days [1]: > 57.1 µM

Compound: CC(C)(C#Cc1ccc(-c2ccc(Cl)c3c(NS(=O)(=O)CC4CC4)nn(CC(F)F)c23)c([C@H](Cc2cc(F)cc(F)c2)NC(=O)Cn2nc(C(F)F)c3c2C(F)(F)[C@@H]2C[C@H]32)n1)S(=O)(=O)C1CC1 [Example 26]
- inhibition at 0.01 µM (HIV-IIIb; [2]): 100%
- inhibition at 0.2 µM (HIV-IIIb; [3]): 100%
- CC50 at 5 days [1]: > 57.1 µM

Compound: CC(C)(C#Cc1ccc(-c2ccc(Cl)c3c(NS(=O)(=O)CC4CC4)nn(CC(F)F)c23)c([C@H](Cc2cc(F)cc(F)c2)NC(=O)Cn2nc(C(F)(F)F)c3c2C(F)(F)[C@@H]2C[C@H]32)n1)S(=O)(=O)C1CC1 [Example 27]
- inhibition at 0.01 µM (HIV-IIIb; [2]): 100%
- inhibition at 0.2 µM (HIV-IIIb; [3]): 100%
- CC50 at 5 days [1]: > 57.1 µM
